Holding throughout (design): recommended concentration 1 uM
The target of assay [1] is T1, Hepatocyte nuclear factor 4-alpha (Homo sapiens) (UniProt P41235).
T1 sequence (whole entry): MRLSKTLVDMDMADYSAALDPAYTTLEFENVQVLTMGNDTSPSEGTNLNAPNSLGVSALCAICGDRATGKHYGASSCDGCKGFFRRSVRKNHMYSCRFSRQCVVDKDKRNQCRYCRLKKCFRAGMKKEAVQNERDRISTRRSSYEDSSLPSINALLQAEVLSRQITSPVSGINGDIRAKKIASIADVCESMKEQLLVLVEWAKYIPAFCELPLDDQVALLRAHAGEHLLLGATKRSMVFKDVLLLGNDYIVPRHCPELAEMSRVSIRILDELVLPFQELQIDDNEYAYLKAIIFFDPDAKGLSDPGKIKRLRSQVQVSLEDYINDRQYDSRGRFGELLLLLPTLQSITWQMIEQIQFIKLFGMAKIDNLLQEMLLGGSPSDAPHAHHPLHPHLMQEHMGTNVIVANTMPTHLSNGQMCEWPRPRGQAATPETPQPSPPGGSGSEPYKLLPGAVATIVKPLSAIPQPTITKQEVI
The assay can be described thus: Selectivity interaction (Reporter gene assay) EUB0000551aCl HNF4A.

For assay [2], the target named is T2, Nuclear receptor subfamily 2 group C member 1 (Homo sapiens) (UniProt P13056).
T2 sequence (whole entry): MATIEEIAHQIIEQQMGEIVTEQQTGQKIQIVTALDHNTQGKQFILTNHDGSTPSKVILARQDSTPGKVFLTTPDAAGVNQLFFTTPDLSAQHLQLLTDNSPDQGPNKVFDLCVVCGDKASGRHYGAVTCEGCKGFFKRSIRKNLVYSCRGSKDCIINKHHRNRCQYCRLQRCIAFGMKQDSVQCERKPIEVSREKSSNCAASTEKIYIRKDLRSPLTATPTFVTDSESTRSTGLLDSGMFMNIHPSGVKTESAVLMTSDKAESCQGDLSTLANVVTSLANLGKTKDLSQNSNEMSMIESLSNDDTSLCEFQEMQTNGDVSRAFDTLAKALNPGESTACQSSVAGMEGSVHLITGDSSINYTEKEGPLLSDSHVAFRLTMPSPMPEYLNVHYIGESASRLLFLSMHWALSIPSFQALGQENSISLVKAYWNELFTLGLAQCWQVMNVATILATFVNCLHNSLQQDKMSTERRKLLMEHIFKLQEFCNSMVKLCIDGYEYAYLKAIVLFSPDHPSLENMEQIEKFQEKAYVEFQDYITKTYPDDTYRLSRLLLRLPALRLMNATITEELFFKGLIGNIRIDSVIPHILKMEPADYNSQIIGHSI
Kind of assay: Selectivity interaction (Reporter gene assay) EUB0000551aCl NR2C1.

Assay [3] addresses Nuclear receptor subfamily 2 group E member 1 (Homo sapiens) (UniProt Q9Y466). Kind of assay: Selectivity interaction (Reporter gene assay) EUB0000551aCl NR2E1. A general note: A reporter such as luciferase makes a cellular process visible.
In assay [4] the target is Nuclear receptor subfamily 4immunitygroup A member 1 (Homo sapiens) (UniProt P22736). Kind of assay: Selectivity interaction (Reporter gene assay) EUB0000551aCl NR4A1.
Sequence of Nuclear receptor subfamily 4immunitygroup A member 1 (Homo sapiens) (P22736 whole entry): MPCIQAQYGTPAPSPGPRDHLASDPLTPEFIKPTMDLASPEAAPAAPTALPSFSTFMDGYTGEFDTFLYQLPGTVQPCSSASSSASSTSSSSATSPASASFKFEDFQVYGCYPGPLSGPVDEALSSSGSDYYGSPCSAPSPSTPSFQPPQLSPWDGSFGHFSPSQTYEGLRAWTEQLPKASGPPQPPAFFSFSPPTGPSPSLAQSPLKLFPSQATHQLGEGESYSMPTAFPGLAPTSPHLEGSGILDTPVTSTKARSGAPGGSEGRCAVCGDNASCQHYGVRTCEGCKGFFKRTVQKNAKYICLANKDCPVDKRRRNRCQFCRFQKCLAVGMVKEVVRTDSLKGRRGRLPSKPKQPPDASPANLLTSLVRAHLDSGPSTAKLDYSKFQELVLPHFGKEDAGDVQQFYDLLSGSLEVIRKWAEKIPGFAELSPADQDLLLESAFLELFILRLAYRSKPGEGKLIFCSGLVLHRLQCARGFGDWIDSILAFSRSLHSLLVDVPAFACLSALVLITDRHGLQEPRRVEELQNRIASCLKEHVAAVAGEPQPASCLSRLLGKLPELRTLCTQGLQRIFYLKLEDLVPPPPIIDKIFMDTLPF
Assay [5] has as its target Steroidogenic factor 1 (Homo sapiens) (UniProt Q13285). The assay can be described thus: Selectivity interaction (Reporter gene assay) EUB0000551aCl NR5A1.
Assay [6] deals with T3, Alpha trans-inducing protein (Human alphaherpesvirus 1) (UniProt A0A5J6DW59). The assay can be described thus: Selectivity interaction (Reporter gene assay) EUB0000551aCl UL48.
T3 sequence (A0A5J6DW59 as listed by the source): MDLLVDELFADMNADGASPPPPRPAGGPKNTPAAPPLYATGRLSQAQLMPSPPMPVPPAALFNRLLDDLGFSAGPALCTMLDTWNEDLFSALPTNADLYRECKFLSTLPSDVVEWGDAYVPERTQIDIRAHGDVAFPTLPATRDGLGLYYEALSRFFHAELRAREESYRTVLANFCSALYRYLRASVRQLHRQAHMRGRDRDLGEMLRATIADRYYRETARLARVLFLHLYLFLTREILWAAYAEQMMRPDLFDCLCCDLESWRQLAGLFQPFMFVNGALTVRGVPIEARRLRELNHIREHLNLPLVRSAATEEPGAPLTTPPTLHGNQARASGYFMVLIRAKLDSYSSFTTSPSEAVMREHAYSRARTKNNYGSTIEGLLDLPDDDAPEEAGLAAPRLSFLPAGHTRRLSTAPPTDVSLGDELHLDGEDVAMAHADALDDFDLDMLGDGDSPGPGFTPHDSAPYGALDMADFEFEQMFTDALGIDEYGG
The target in assay [7] is T4, Retinoic acid receptor RXR-alpha (Homo sapiens) (UniProt P19793).
T4 sequence (whole entry): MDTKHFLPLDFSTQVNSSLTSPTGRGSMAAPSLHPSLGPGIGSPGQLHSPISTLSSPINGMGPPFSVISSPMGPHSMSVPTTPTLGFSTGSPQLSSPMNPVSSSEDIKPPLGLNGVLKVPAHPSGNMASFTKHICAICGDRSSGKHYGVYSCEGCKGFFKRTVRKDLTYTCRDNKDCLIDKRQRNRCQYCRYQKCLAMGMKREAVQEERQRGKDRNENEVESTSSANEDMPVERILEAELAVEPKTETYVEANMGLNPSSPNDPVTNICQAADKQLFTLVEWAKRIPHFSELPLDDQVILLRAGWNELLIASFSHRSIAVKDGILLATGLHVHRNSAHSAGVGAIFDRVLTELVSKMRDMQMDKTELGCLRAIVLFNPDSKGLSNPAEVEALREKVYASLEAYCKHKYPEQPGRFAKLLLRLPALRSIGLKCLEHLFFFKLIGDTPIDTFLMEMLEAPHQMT
The assay can be described thus: Selectivity interaction (Reporter gene assay) EUB0000551aCl RXRA. The note with it: reference bexarotene 1 uM, Selectivity number of off-targets 0.0, Selectivity number of targets 1.0, Source Knowledge inhouse.

Assay [8] deals with Adenosine receptor A1 (Homo sapiens) (UniProt P30542). Kind of assay: Selectivity interaction (CEREP panel) EUB0000323b ADORA1. The note with it: at 10 µM.
Sequence of Adenosine receptor A1 (Homo sapiens) (P30542 whole entry): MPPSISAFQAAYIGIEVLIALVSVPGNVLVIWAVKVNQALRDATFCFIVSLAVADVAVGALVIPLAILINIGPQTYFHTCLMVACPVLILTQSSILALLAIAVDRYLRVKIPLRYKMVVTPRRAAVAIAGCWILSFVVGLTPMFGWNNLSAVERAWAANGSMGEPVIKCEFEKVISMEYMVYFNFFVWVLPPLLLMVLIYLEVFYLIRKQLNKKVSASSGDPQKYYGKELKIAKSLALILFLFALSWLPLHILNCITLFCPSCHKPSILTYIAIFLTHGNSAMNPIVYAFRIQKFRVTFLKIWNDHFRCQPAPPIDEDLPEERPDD
The target of assay [9] is Bromodomain-containing protein 3 (Homo sapiens) (UniProt Q15059). Kind of assay: (§1) Selectivity interaction (Bromodomain panel) EUB0000323b BRD3.
Sequence of Bromodomain-containing protein 3 (Homo sapiens) (Q15059 2-726 limits assumed): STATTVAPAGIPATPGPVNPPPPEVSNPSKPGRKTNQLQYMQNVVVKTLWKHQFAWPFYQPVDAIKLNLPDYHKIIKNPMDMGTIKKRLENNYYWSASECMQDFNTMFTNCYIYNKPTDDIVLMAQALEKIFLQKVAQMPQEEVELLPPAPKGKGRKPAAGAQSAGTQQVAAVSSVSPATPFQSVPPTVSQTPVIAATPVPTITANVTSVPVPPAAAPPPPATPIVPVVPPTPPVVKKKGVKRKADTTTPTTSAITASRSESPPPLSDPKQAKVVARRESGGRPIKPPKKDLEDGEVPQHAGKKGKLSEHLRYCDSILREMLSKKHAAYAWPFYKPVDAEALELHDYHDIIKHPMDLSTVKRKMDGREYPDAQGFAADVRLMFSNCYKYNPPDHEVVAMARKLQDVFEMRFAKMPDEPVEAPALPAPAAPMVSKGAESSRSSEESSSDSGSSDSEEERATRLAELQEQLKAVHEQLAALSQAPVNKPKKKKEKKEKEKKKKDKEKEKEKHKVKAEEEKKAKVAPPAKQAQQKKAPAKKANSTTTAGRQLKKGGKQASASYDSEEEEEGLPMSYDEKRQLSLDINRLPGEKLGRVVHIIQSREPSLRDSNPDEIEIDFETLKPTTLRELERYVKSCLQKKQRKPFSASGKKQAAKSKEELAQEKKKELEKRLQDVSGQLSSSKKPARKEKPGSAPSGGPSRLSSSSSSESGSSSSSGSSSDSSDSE
The target is the same in assay [10]. Described as §1. The source holds these as a separate data set.
The target in assay [11] is Bromodomain-containing protein 4 (Homo sapiens, UniProt O60885). Kind of assay: Selectivity interaction (Bromodomain panel) EUB0000323b BRD4.
The target in assay [12] is Bromodomain-containing protein 7 (Homo sapiens) (UniProt Q9NPI1). Kind of assay: Selectivity interaction (Bromodomain panel) EUB0000323b BRD7.
Sequence of Bromodomain-containing protein 7 (Homo sapiens) (Q9NPI1 whole entry): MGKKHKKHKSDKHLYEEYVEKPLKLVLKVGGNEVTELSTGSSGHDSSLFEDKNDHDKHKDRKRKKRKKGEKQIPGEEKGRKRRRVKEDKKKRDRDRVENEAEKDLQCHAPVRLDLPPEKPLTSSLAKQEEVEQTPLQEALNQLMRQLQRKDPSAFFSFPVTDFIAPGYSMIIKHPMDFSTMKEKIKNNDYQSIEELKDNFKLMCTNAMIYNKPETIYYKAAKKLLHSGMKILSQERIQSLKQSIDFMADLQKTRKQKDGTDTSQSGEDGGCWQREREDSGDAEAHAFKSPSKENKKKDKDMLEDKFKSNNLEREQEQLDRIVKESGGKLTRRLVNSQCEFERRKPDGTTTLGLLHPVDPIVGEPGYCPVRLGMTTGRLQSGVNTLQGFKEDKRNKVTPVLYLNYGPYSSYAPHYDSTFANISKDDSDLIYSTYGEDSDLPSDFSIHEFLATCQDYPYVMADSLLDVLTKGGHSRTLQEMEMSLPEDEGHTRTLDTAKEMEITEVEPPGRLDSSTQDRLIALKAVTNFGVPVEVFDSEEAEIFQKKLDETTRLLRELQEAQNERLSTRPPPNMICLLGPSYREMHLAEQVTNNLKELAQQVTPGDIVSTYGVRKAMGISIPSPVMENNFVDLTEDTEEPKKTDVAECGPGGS
Assay [13] addresses Transcription initiation factor TFIID subunit 1-like (Homo sapiens) (UniProt Q8IZX4). The assay can be described thus: Selectivity interaction (Bromodomain panel) EUB0000323b TAF1L.
For assay [14], the target named is Transcription intermediary factor 1-alpha (Homo sapiens) (UniProt O15164). The assay can be described thus: (§2) Selectivity interaction (Bromodomain panel) EUB0000323b TRIM24.
Sequence of Transcription intermediary factor 1-alpha (Homo sapiens) (O15164 whole entry): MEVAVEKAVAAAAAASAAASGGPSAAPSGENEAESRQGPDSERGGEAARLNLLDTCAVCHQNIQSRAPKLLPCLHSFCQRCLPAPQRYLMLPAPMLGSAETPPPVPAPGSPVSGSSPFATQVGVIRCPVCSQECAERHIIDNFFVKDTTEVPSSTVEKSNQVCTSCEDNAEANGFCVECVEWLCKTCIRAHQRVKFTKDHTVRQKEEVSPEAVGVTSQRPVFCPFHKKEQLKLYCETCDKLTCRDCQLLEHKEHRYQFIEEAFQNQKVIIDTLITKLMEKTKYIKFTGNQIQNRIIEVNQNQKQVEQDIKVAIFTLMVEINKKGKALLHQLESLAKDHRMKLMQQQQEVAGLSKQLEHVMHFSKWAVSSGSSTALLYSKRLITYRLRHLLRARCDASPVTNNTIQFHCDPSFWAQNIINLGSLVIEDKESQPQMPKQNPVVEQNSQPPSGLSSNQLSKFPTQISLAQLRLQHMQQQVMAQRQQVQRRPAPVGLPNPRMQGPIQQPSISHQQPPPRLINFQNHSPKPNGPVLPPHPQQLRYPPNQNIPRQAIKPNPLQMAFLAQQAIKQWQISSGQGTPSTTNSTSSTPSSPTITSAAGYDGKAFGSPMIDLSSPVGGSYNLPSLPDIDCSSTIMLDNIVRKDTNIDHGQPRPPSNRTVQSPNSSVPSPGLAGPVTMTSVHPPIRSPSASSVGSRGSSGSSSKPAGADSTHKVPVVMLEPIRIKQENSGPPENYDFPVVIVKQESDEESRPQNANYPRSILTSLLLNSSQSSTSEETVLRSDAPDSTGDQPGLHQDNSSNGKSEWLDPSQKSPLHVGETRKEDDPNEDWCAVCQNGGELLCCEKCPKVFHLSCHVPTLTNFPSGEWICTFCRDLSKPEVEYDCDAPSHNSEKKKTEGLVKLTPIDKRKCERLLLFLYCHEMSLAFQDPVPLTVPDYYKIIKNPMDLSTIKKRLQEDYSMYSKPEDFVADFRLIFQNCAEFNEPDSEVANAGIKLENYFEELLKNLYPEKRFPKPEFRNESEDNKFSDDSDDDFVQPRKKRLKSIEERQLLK
The target is the same in assay [15]. Described as §2. The source holds these as a separate data set.
In assay [16] the target is T1, Hepatocyte nuclear factor 4-alpha (Homo sapiens). The assay can be described thus: Selectivity interaction (Reporter gene assay) EUB0000566a HNF4A.
Assay [17] has as its target T2, Nuclear receptor subfamily 2 group C member 1 (Homo sapiens). Kind of assay: Selectivity interaction (Reporter gene assay) EUB0000566a NR2C1.
Assay [18] concerns the target Nuclear receptor subfamily 2 group E member 1 (Homo sapiens) (UniProt Q9Y466). The assay can be described thus: Selectivity interaction (Reporter gene assay) EUB0000566a NR2E1.
Assay [19] has as its target Nuclear receptor subfamily 4immunitygroup A member 1 (Homo sapiens) (UniProt P22736). Kind of assay: Selectivity interaction (Reporter gene assay) EUB0000566a NR4A1.
For assay [20], the target named is Steroidogenic factor 1 (Homo sapiens) (UniProt Q13285). The assay can be described thus: Selectivity interaction (Reporter gene assay) EUB0000566a NR5A1.
Sequence of Steroidogenic factor 1 (Homo sapiens) (Q13285 whole entry): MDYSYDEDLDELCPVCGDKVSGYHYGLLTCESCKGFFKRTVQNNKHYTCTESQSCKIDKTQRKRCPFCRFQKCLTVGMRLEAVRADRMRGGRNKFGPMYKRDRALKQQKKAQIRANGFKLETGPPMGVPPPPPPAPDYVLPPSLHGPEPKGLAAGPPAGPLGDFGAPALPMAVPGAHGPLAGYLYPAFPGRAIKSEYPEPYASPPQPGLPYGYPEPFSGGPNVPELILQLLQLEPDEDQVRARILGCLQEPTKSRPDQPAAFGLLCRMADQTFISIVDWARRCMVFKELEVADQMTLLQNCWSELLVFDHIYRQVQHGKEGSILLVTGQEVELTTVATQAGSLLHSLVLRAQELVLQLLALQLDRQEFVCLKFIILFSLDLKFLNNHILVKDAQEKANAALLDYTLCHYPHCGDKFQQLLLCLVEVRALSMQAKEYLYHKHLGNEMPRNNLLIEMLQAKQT
Assay [21] addresses T3, Alpha trans-inducing protein (Human alphaherpesvirus 1). The assay can be described thus: Selectivity interaction (Reporter gene assay) EUB0000566a UL48.
Assay [22] has as its target T4, Retinoic acid receptor RXR-alpha (Homo sapiens). Kind of assay: Selectivity interaction (Reporter gene assay) EUB0000566a RXRA.
Assay [23] addresses T1, Hepatocyte nuclear factor 4-alpha (Homo sapiens). Kind of assay: Selectivity interaction (Reporter gene assay) EUB0000564a HNF4A.
Assay [24] has as its target T2, Nuclear receptor subfamily 2 group C member 1 (Homo sapiens). Kind of assay: Selectivity interaction (Reporter gene assay) EUB0000564a NR2C1.
Assay [25] concerns the target Nuclear receptor subfamily 2 group E member 1 (Homo sapiens) (UniProt Q9Y466). Kind of assay: Selectivity interaction (Reporter gene assay) EUB0000564a NR2E1.
The target in assay [26] is Nuclear receptor subfamily 4immunitygroup A member 1 (Homo sapiens) (UniProt P22736). The assay can be described thus: Selectivity interaction (Reporter gene assay) EUB0000564a NR4A1.
In assay [27] the target is Steroidogenic factor 1 (Homo sapiens) (UniProt Q13285). Kind of assay: Selectivity interaction (Reporter gene assay) EUB0000564a NR5A1.
The target of assay [28] is T3, Alpha trans-inducing protein (Human alphaherpesvirus 1). Kind of assay: Selectivity interaction (Reporter gene assay) EUB0000564a UL48.
Assay [29] addresses T4, Retinoic acid receptor RXR-alpha (Homo sapiens). The assay can be described thus: Selectivity interaction (Reporter gene assay) EUB0000564a RXRA. The note with it: reference bexarotene 1 uM, Selectivity number of off-targets 0.0, Selectivity number of targets 1.0, Source Knowledge inhouse.

Sequence of Nuclear receptor subfamily 2 group E member 1 (Homo sapiens) (Q9Y466 whole entry): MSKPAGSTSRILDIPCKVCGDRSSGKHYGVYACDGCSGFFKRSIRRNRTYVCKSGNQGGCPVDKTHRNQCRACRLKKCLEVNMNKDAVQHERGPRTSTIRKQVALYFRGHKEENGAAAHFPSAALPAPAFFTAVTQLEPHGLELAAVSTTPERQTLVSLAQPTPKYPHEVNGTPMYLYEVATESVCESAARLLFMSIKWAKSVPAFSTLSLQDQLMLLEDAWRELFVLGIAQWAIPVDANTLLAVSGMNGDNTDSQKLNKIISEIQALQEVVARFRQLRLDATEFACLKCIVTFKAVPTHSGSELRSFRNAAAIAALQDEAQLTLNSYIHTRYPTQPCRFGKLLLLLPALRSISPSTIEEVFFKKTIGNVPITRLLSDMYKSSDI

As for `Cc1cccc(CN2CCN(C(c3ccccc3)c3ccc(Cl)cc3)CC2)c1` (centres undefined), the Fold activation is 1 in [1], 1.14 in [2], 1.01 in [3] and 1.12 in assay [4]. For the same compound, the Remaining activity in [5] worked out at 0.814. In assay [6], this compound had a P-value of 0.00398. The Relative activation in assay [7] amounted to 0.534%.

Regarding `COc1cc2c(cc1NS(=O)(=O)c1ccc(Br)cc1C)n(C)c(=O)n2C`, the Inhibition of control in assay [8] turned out to be 82%. For the same compound, the ΔTm in assay [9] is 1.6 °C; in assay [10], 1.4 °C; in assay [11] it was 2 °C; in [12] it was 1.2 °C; in assay [13], 1.4 °C; in [14], 1.6 °C. Moreover, the ΔTm in assay [15] amounted to 1.8 °C.

For `CC1(C)CCC(C)(C)c2cc(NC(=O)c3ccc(C(=O)O)cc3)ccc21`, the Fold activation in assay [16] stood at 0.997; in assay [19] it was 1.31. In addition, the Remaining activity in assay [17] stood at 0.903; in [18], 0.763; in assay [20], 0.902. The same compound showed a P-value in [21] of 2.26e-06. For the same compound, the Relative activation in assay [22] is 0.52%.

For `COc1ccc(-c2ccc3cc(C(=O)O)ccc3c2)cc1C12CC3CC(CC(C3)C1)C2`, the values for the Fold activation in [23], in assay [24] and in assay [26] were 1, 1.03 and 1.11, respectively. Besides, the values for the Remaining activity in assay [25] and in assay [27] were 0.926 and 0.896, respectively. The P-value in assay [28] worked out at 0.00282. The same compound showed a Relative activation in [29] of 0.848%.

One may read the ΔTm as the change in melting temperature against a reference sample.
